The compounds below were run against T1, mUSP18 (Mus musculus, UniProt Q9WTV6) (assay: High-throughput screening, ISG15ct-RhoMP, single dose 1.25 µM). Conditions: mUSP18 %inhibition; carboxylic acid (CA) building block alone; read-out: %inh CA only.
T1 construct: (46-368); His-tag (N); made in house
T1 sequence (Q9WTV6 46-368): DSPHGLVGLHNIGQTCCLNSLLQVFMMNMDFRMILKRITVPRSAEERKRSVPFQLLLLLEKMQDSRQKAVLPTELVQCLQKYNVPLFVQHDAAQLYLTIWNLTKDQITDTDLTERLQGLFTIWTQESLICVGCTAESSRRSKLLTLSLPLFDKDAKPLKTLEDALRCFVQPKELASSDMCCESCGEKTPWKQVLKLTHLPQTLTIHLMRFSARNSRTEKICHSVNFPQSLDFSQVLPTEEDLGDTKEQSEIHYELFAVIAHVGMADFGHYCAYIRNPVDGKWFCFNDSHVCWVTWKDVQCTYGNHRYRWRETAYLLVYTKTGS
Assay type: biochemical, murine

Point of comparison: `O=C(O)C1CCN(Cc2ccc(Cl)s2)CC1` [CA107], inhibition at 1.25 µM 13%. Against it:
- O=C(O)CCN(Cc1ccccc1)S(=O)(=O)c1c(Cl)cccc1Cl [CA093] — higher, 18.6%
- O=C(O)c1ncoc1-c1cccs1 [CA094] — higher, 14.4%
- O=C(O)c1cccc(S(=O)(=O)NCc2cccs2)c1 [CA095] — higher, 14.6%
- Cc1ccc(-n2c(C)ccc2C)c(C(=O)O)c1 [CA96] — higher, 74.4%
- O=C(O)Cc1csc(COc2ccc(Cl)cc2)n1 [CA097] — higher, 15.8%
- O=C(O)Cc1cc(-c2ccccc2)on1 [CA098] — higher, 21.6%
- O=C(O)Cc1ccc(S(=O)(=O)N2CCCC2)s1 [CA099] — higher, 21.7%
- CN(C(=O)c1cccs1)c1ccccc1C(=O)O [CA100] — higher, 16.4%
- CN1CCN(c2ccccc2C(=O)O)CC1 [CA101] — higher, 13.5%
- Cn1cc(-c2ocnc2C(=O)O)cn1 [CA102] — lower, 12.6%
- NS(=O)(=O)c1ccc(-c2cccc(C(F)(F)F)c2)c(C(=O)O)c1 [CA103] — lower, 11.4%
- O=C(O)c1cnoc1-c1cccs1 [CA104] — lower, 12.4%
- O=C(O)c1ccc(OCc2ccncc2)cc1 [CA105] — lower, 12.9%
- O=C(O)c1cc(-n2ccnc2)ccn1 [CA106] — higher, 13.6%
- O=C(O)C1CC(=O)N(c2cnccn2)C1 (stereo not drawn) [CA108] — higher, 13.8%
- CCC(C(=O)O)n1nnc(-c2ccsc2)n1 (stereo not drawn) [CA109] — lower, 10.4%
- Cc1cnn(-c2c(C(=O)O)c(C)nn2C)c1 [CA110] — lower, 12.9%
- O=C(O)c1csc(-c2ncccn2)n1 [CA111] — lower, 12.3%
- O=C(O)c1ncoc1C1CC1 [CA112] — higher, 13.7%
- O=C(O)CC(O)(c1nccn1Cc1ccccc1)C(F)(F)F (stereo not drawn) [CA113] — lower, 9.19%
- O=C(O)c1cn(C2CCC2)nn1 [CA114] — higher, 23.9%
- Cc1ccc(NS(=O)(=O)c2cccc(C(=O)O)c2)cc1 [CA115] — higher, 21.2%
- O=C(O)[1C@@H]1C[1C@H]1c1ccco1 [CA116] — higher, 14.9%
- Cn1ncc(C(=O)O)c1-n1cccc1 [CA117] — higher, 18.6%
- O=C(O)C1(n2cnnn2)CC1 [CA118] — lower, 12.1%
- O=C(O)C1CC(OCc2ccccc2)C1 (stereo not drawn) [CA119] — higher, 13.6%
- O=C(O)C1(n2cnnn2)CCOCC1 [CA120] — lower, 11.7%
- O=C(O)c1noc(Cc2ccccc2F)n1 [CA121] — lower, 10.7%
- CCn1cc(S(=O)(=O)N2CCC(C(=O)O)CC2)cn1 [CA122] — lower, 11.4%
- O=C(O)[1C@@H]1CCO[1C@H]1c1ccccc1 [CA123] — lower, 12.2%
- O=C(O)c1cnnn1-c1ccccc1Cl [CA124] — lower, 10.7%
- O=C(O)c1cnn(-c2ccncc2)c1 [CA125] — lower, 7.48%
- O=C(O)c1snnc1-c1ccc(Br)cc1 [CA126] — lower, 9.01%
- Cc1nc(CN2CCCC2C(=O)O)no1 (stereo not drawn) [CA127] — lower, 2.84%
- Cc1oc(-c2ccco2)nc1CC(=O)O [CA128] — lower, 4.02%
- O=C(O)c1ccccc1OCc1ccncc1 [CA129] — lower, 8.78%
- COc1ccc(N2CCN(C(C)C(=O)O)CC2)cc1 (stereo not drawn) [CA130] — lower, 7.09%
- Cc1cc(C)c(C(=O)O)c(OCC2CCCCC2)n1 [CA131] — lower, 9.41%
- O=C(O)c1ccc(S(=O)(=O)NC2CC2)cc1 [CA132] — lower, 7.6%

Same assay, conditions: mUSP18 %inhibition; carboxylic acid (CA) with coupling reagents DIC/HOBT; read-out: %inh CA + DIC/HOBT

Point of comparison: `Cn1ncc(C(=O)O)c1-n1cccc1` [CA117], inhibition at 1.25 µM 10%. Against it:
- O=C(O)CCN(Cc1ccccc1)S(=O)(=O)c1c(Cl)cccc1Cl [CA093] — higher, 13.9%
- O=C(O)c1ncoc1-c1cccs1 [CA094] — higher, 10.3%
- O=C(O)c1cccc(S(=O)(=O)NCc2cccs2)c1 [CA095] — higher, 10.3%
- Cc1ccc(-n2c(C)ccc2C)c(C(=O)O)c1 [CA96] — higher, 60%
- O=C(O)Cc1csc(COc2ccc(Cl)cc2)n1 [CA097] — higher, 12.5%
- O=C(O)Cc1cc(-c2ccccc2)on1 [CA098] — higher, 14.7%
- O=C(O)Cc1ccc(S(=O)(=O)N2CCCC2)s1 [CA099] — higher, 15.6%
- CN(C(=O)c1cccs1)c1ccccc1C(=O)O [CA100] — higher, 10.5%
- CN1CCN(c2ccccc2C(=O)O)CC1 [CA101] — higher, 12.2%
- Cn1cc(-c2ocnc2C(=O)O)cn1 [CA102] — higher, 14.3%
- NS(=O)(=O)c1ccc(-c2cccc(C(F)(F)F)c2)c(C(=O)O)c1 [CA103] — higher, 12.3%
- O=C(O)c1cnoc1-c1cccs1 [CA104] — higher, 34%
- O=C(O)c1ccc(OCc2ccncc2)cc1 [CA105] — higher, 11.9%
- O=C(O)c1cc(-n2ccnc2)ccn1 [CA106] — higher, 10.8%
- O=C(O)C1CCN(Cc2ccc(Cl)s2)CC1 [CA107] — higher, 10.7%
- O=C(O)C1CC(=O)N(c2cnccn2)C1 (stereo not drawn) [CA108] — higher, 11.5%
- CCC(C(=O)O)n1nnc(-c2ccsc2)n1 (stereo not drawn) [CA109] — higher, 12.2%
- Cc1cnn(-c2c(C(=O)O)c(C)nn2C)c1 [CA110] — higher, 15%
- O=C(O)c1csc(-c2ncccn2)n1 [CA111] — higher, 14.7%
- O=C(O)c1ncoc1C1CC1 [CA112] — higher, 16.4%
- O=C(O)CC(O)(c1nccn1Cc1ccccc1)C(F)(F)F (stereo not drawn) [CA113] — higher, 16.2%
- O=C(O)c1cn(C2CCC2)nn1 [CA114] — lower, 9%
- Cc1ccc(NS(=O)(=O)c2cccc(C(=O)O)c2)cc1 [CA115] — lower, 6.11%
- O=C(O)[1C@@H]1C[1C@H]1c1ccco1 [CA116] — lower, 4.8%
- O=C(O)C1(n2cnnn2)CC1 [CA118] — lower, 4.09%
- O=C(O)C1CC(OCc2ccccc2)C1 (stereo not drawn) [CA119] — lower, 8.14%
- O=C(O)C1(n2cnnn2)CCOCC1 [CA120] — lower, 5.68%
- O=C(O)c1noc(Cc2ccccc2F)n1 [CA121] — lower, 7.15%
- CCn1cc(S(=O)(=O)N2CCC(C(=O)O)CC2)cn1 [CA122] — lower, 5.98%
- O=C(O)[1C@@H]1CCO[1C@H]1c1ccccc1 [CA123] — lower, 8.31%
- O=C(O)c1cnnn1-c1ccccc1Cl [CA124] — lower, 3.42%
- O=C(O)c1cnn(-c2ccncc2)c1 [CA125] — lower, 7.42%
- O=C(O)c1snnc1-c1ccc(Br)cc1 [CA126] — higher, 10.8%
- Cc1nc(CN2CCCC2C(=O)O)no1 (stereo not drawn) [CA127] — lower, 5.46%
- Cc1oc(-c2ccco2)nc1CC(=O)O [CA128] — lower, 9.87%
- O=C(O)c1ccccc1OCc1ccncc1 [CA129] — higher, 10.2%
- COc1ccc(N2CCN(C(C)C(=O)O)CC2)cc1 (stereo not drawn) [CA130] — lower, 7.3%
- Cc1cc(C)c(C(=O)O)c(OCC2CCCCC2)n1 [CA131] — higher, 31.3%
- O=C(O)c1ccc(S(=O)(=O)NC2CC2)cc1 [CA132] — lower, 4.16%

Same assay, conditions: screened with and without DIC/HOBt

In the case of `Cc1ccc(-n2c(C)ccc2C)c(C(=O)O)c1` [CA96], the “inhibition of mUSP18 by individual CA's and coupling reagents” value is reported as “could inhibit mUSP18”.

From article PMC12668310, “High‐Throughput Synthesis and Screening of a Cyanimide Library Identifies Selective Inhibitors of ISG15‐Specific Protease mUSP18” (Angewandte Chemie (International Ed. in English), 2025)
